Data on 33 compounds can be found in a polymer gas permeability compilation.

Structures are written as SMILES.

`*Oc1ccc(C(=O)c2ccc(-c3ccc(C(=O)c4ccc(Oc5ccc(S(=O)(=O)c6ccc(*)cc6)cc5)cc4)cc3)cc2)cc1` (repeat unit): the CH4 permeability worked out at 0.12 Barrer, the CO2 permeability came out at 3.27 Barrer, the H2 permeability came to 8.38 Barrer and the N2 permeability amounted to 0.11 Barrer. This compound displayed an O2 permeability of 0.64 Barrer.
The like results for `*Oc1ccc(C(C)(C)c2ccc(OC(=O)c3cc(C(*)=O)cc(C(C)(C)C)c3)c(C(C)C)c2)cc1C(C)C` (repeat unit) were, in that order, 1.43 Barrer, 16.1 Barrer, 41.4 Barrer, 1.08 Barrer and 5.03 Barrer.
Take `*c1ccc(-c2cc(C)c(-c3ccc(*)cc3C)cc2C)c(C)c1` (repeat unit): the CH4 permeability stood at 0.88 Barrer, the CO2 permeability amounted to 32 Barrer, the H2 permeability was 72 Barrer and the N2 permeability was determined as 1.4 Barrer. The O2 permeability was 7.2 Barrer.
`*c1ccc(Cc2ccc(N3C(=O)c4ccc(Oc5ccc6c(c5)C(=O)N(*)C6=O)cc4C3=O)cc2)cc1` (repeat unit): the H2 permeability is 5.62 Barrer, the N2 permeability came out at 0.028 Barrer and the O2 permeability stood at 0.261 Barrer.
In turn, `*Nc1ccc(C(C)(C)c2ccc(NC(=O)c3ccc(Oc4cc(C(C)(C)C)c(Oc5ccc(C(*)=O)cc5)cc4C(C)(C)C)cc3)cc2)cc1` (repeat unit) had a CH4 permeability of 0.47 Barrer, a CO2 permeability of 13 Barrer, an N2 permeability of 0.46 Barrer and an O2 permeability of 3.11 Barrer.
In turn, `*c1c(C)cc2c(c1C)C1c3ccccc3C2c2cc(C)c(N3C(=O)c4ccc5c6c(ccc(c46)C3=O)C(=O)N(*)C5=O)c(C)c21` (repeat unit) returned a CH4 permeability of 122 Barrer, a CO2 permeability of 1860 Barrer, an H2 permeability of 1480 Barrer and an N2 permeability of 97 Barrer. Also, the O2 permeability was 390 Barrer.
On to `*c1ccc(Oc2ccc(C3(c4ccc(Oc5ccc(N6C(=O)c7ccc(C(c8ccc9c(c8)C(=O)N(*)C9=O)(C(F)(F)F)C(F)(F)F)cc7C6=O)cc5)cc4)OC(=O)c4ccccc43)cc2)cc1` (repeat unit), for which the CH4 permeability turned out to be 0.455 Barrer, the CO2 permeability turned out to be 16.5 Barrer, the N2 permeability was found to be 0.965 Barrer and the O2 permeability amounted to 4.83 Barrer.
Take `*c1cc2c(cc1O)C1(CC2(C)C)CC(C)(C)c2cc(N3C(=O)C4C5C=CC(C6C(=O)N(*)C(=O)C56)C4C3=O)c(O)cc21` (repeat unit): the CH4 permeability stood at 4.6 Barrer, the CO2 permeability came out at 130 Barrer, the H2 permeability stood at 206 Barrer and the N2 permeability is 5.5 Barrer. The compound also gave an O2 permeability of 23 Barrer.
In turn, `*C(=C(*)c1ccc([Si](C)(C)CCCCCCCC)cc1)c1ccccc1` (repeat unit) showed a CO2 permeability of 170 Barrer, an N2 permeability of 11 Barrer and an O2 permeability of 34 Barrer.
`*c1ccc(Oc2ccc(-c3ccc(-c4ccc(Oc5ccc(N6C(=O)c7ccc(C(c8ccc9c(c8)C(=O)N(*)C9=O)(C(F)(F)F)C(F)(F)F)cc7C6=O)cc5)c(C(F)(F)F)c4)s3)cc2C(F)(F)F)cc1` (repeat unit) came in with a CH4 permeability of 1.68 Barrer, a CO2 permeability of 45.3 Barrer, an N2 permeability of 1.78 Barrer and an O2 permeability of 11.7 Barrer.
The compound `*CC(*)OCC1CC2CC1C1CCCC21` (repeat unit) returned a CO2 permeability of 2.85 Barrer, an N2 permeability of 0.13 Barrer and an O2 permeability of 0.81 Barrer.
For the compound `*Cc1ccc(C*)c(C#N)c1` (repeat unit), the CO2 permeability came out at 0.301 Barrer, the H2 permeability came to 1.78 Barrer and the O2 permeability worked out at 0.0904 Barrer.
With `*Oc1cc2c(cc1O*)C(C)(C)CC1(CC(C)(C)c3cc4c(cc3O1)Oc1c(C#N)c(*)c(*)c(C#N)c1O4)O2` (repeat unit), the CH4 permeability was determined as 93 Barrer, the CO2 permeability came to 1540 Barrer, the H2 permeability came to 750 Barrer and the N2 permeability was 61.5 Barrer. The same compound had an O2 permeability of 212 Barrer.
Take `*NCCCCCCCCCCC(*)=O` (repeat unit): the CO2 permeability is 1 Barrer and the H2 permeability is 2.63 Barrer.
`*Oc1ccc(S(=O)(=O)c2ccc(Oc3ccc(Cc4ccc(*)cc4)cc3)cc2)cc1` (repeat unit) returned a CH4 permeability of 0.188 Barrer, a CO2 permeability of 4.5 Barrer, an N2 permeability of 0.2 Barrer and an O2 permeability of 1.1 Barrer.
For the compound `*CC(*)(C)C(=O)OC` (repeat unit), the CH4 permeability amounted to 0.00565 Barrer, the CO2 permeability was 0.35 Barrer, the H2 permeability amounted to 4.1 Barrer and the N2 permeability was found to be 0.0113 Barrer. For the same compound, the O2 permeability came out at 0.0885 Barrer.
In turn, `*c1ccc(Oc2ccc(-c3ccc(-c4ccc(-c5ccc(Oc6ccc(N7C(=O)c8ccc(C(c9ccc%10c(c9)C(=O)N(*)C%10=O)(C(F)(F)F)C(F)(F)F)cc8C7=O)cc6)c(C(F)(F)F)c5)cc4)cc3)cc2C(F)(F)F)cc1` (repeat unit) returned a CH4 permeability of 1.51 Barrer, a CO2 permeability of 36.6 Barrer, an N2 permeability of 3.11 Barrer and an O2 permeability of 17.1 Barrer.
Turning to `*/C(C)=C(/*)[Si](C)(C)CC` (repeat unit), the CH4 permeability was 1200 Barrer, the CO2 permeability came to 4600 Barrer, the H2 permeability was 1930 Barrer and the N2 permeability amounted to 490 Barrer. Besides, the O2 permeability came to 970 Barrer.
In the same order, the values of `*c1cc(C)c(C)c(N2C(=O)c3ccc(Oc4cc(C(C)(C)C)ccc4Oc4ccc5c(c4)C(=O)N(*)C5=O)cc3C2=O)c1C` (repeat unit) are 2.5 Barrer, 63 Barrer, 85 Barrer, 2.2 Barrer and 11 Barrer.
In the same order, the values of `*c1cccc(-c2cc(C)c(-c3cccc(*)c3C)cc2C)c1C` (repeat unit) are 5.6 Barrer, 190 Barrer, 210 Barrer, 7.3 Barrer and 32 Barrer.
The like results for `*Oc1cc2c(cc1O*)C1(c3ccccc3-c3cc4c(cc31)Oc1c(C#N)c(*)c(*)c(C#N)c1O4)c1cc(C)c(C)cc1-2` (repeat unit) were, in that order, 563 Barrer, 7880 Barrer, 4420 Barrer, 341 Barrer and 1390 Barrer.
As for `*c1ccc2c(-c3c(OC(C)=O)ccc4cc(N5C(=O)c6ccc(C(=O)c7ccc8c(c7)C(=O)N(*)C8=O)cc6C5=O)ccc34)c(OC(C)=O)ccc2c1` (repeat unit), the CH4 permeability amounted to 0.08 Barrer, the CO2 permeability came to 3.55 Barrer, the H2 permeability came out at 4.67 Barrer and the N2 permeability is 0.15 Barrer. Moreover, the O2 permeability is 0.92 Barrer.
The like results for `*C(=O)c1ccc(C2(c3ccc(C(=O)c4ccc(Oc5ccc(C(=O)c6cccc(C(=O)c7ccc(Oc8ccc(*)cc8)cc7)c6)cc5)cc4)cc3)OC(=O)c3ccccc32)cc1` (repeat unit) were, in that order, 0.0276 Barrer, 0.91 Barrer, 5.3 Barrer, 0.031 Barrer and 0.27 Barrer.
Turning to `*c1ccc(Oc2ccc(N3C(=O)c4ccc(Oc5ccc(Oc6ccc7c(c6)C(=O)N(*)C7=O)cc5)cc4C3=O)cc2)cc1` (repeat unit), the H2 permeability worked out at 4 Barrer, the N2 permeability worked out at 0.034 Barrer and the O2 permeability worked out at 0.216 Barrer.
The compound `*c1cccc(N2C(=O)c3ccc(C(c4ccc5c(c4)C(=O)N(*)C5=O)(C(F)(F)F)C(F)(F)F)cc3C2=O)c1` (repeat unit) yielded a CH4 permeability of 0.163 Barrer, a CO2 permeability of 9.7 Barrer, an H2 permeability of 35.5 Barrer and an N2 permeability of 0.419 Barrer. The same compound showed an O2 permeability of 2.79 Barrer.
Turning to `*c1cc(C)c(N2C(=O)c3ccc(C(c4ccc5c(c4)C(=O)N(*)C5=O)(C(F)(F)F)C(F)(F)F)cc3C2=O)c(C)c1` (repeat unit), the CH4 permeability is 0.349 Barrer, the CO2 permeability was determined as 17.9 Barrer, the N2 permeability is 0.499 Barrer and the O2 permeability is 3.53 Barrer.
Turning to `*c1ccc(C2(c3ccc(N4C(=O)c5ccc(C(c6ccc7c(c6)C(=O)N(*)C7=O)(C(F)(F)F)C(F)(F)F)cc5C4=O)cc3)c3cc(C(C)(C)C)ccc3-c3ccc(C(C)(C)C)cc32)cc1` (repeat unit), the CH4 permeability was 14.6 Barrer, the CO2 permeability is 271 Barrer and the N2 permeability was 14.1 Barrer.
Regarding `*Oc1ccc(C(C)(C)c2ccc(Oc3ccc(S(=O)(=O)c4ccc(*)c5ccccc45)cc3)cc2)cc1` (repeat unit), the CH4 permeability is 0.08 Barrer, the CO2 permeability stood at 4.7 Barrer, the N2 permeability amounted to 0.15 Barrer and the O2 permeability turned out to be 1.2 Barrer.
In the case of `*Oc1cc2c(cc1O*)C1(CC2(C)CC)c2cc3c(cc2C(C)(CC)C1C)Oc1c(C#N)c(*)c(*)c(C#N)c1O3` (repeat unit), the CH4 permeability is 580 Barrer, the CO2 permeability is 6100 Barrer, the H2 permeability amounted to 2100 Barrer and the N2 permeability turned out to be 320 Barrer. For the same compound, the O2 permeability worked out at 820 Barrer.
`*CC(*)c1ccc(C(C)(C)C)cc1` (repeat unit) yielded a CH4 permeability of 16.7 Barrer, a CO2 permeability of 140 Barrer, an N2 permeability of 8.4 Barrer and an O2 permeability of 35.5 Barrer.
Regarding `*c1ccc(Oc2ccc(C(C)(C)c3ccc(Oc4ccc(N5C(=O)c6ccc(Oc7ccc8c(c7)C(=O)N(*)C8=O)cc6C5=O)cc4)cc3)cc2)cc1` (repeat unit), the CO2 permeability worked out at 2.7 Barrer, the H2 permeability was determined as 8 Barrer, the N2 permeability was 0.07 Barrer and the O2 permeability is 0.49 Barrer.
For `*CC(*)c1ccc(C([Si](C)(C)C)[Si](C)(C)C)cc1` (repeat unit), the CO2 permeability turned out to be 150 Barrer, the N2 permeability amounted to 10.1 Barrer and the O2 permeability amounted to 37.7 Barrer.
As for `*c1ccc(-c2ccc(Oc3ccc(C4(c5ccc(Oc6ccc(-c7ccc(N8C(=O)c9ccc(C(c%10ccc%11c(c%10)C(=O)N(*)C%11=O)(C(F)(F)F)C(F)(F)F)cc9C8=O)cc7)cc6C(F)(F)F)cc5)c5ccccc5C(=O)N4c4ccccc4)cc3)c(C(F)(F)F)c2)cc1` (repeat unit), the CH4 permeability came out at 1.01 Barrer, the CO2 permeability turned out to be 53.9 Barrer, the N2 permeability came out at 1.71 Barrer and the O2 permeability was 10.2 Barrer.
